This note sets out measurements from PubChem BioAssay (NCI).

Among the test systems are CCRF-CEM leukemia; OVCAR-4 ovarian; TK-10 renal; NCI-H226 lung; HS 578T breast; MALME-3M melanoma; RPMI-8226 leukemia; UACC-62 melanoma; EKVX NSCLC; RXF 393 renal.
Holding throughout (test): NCI tumour cell line growth inhibition, 48 h

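Compound exposure: 48 hours, 5 concentrations, 96-well plates. GI50 is the concentration that inhibits growth by half. At the TGI there is no net growth.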

`O=C(Cc1ccccc1)Nc1nnc(CCSCCc2nnc(NC(=O)Cc3ccccc3)s2)s1`: the GI50 is greater than 100 µM in the assay with CCRF-CEM leukemia; 3.96 µM in the assay with OVCAR-4 ovarian; 35.6 µM in the assay on TK-10 renal; 29.9 µM with NCI-H226 lung; 1.93 µM in the assay on HS 578T breast; 13.5 µM in the assay on MALME-3M melanoma. Besides, the GI50 in the assay with RPMI-8226 leukemia is 5.67 µM; in the assay on UACC-62 melanoma, 19.2 µM; in the assay on EKVX NSCLC it was greater than 100 µM; in the assay on RXF 393 renal, 17.9 µM. Moreover, the TGI was greater than 100 µM in the assay with CCRF-CEM leukemia; 32.7 µM with OVCAR-4 ovarian; greater than 100 µM in the assay with TK-10 renal; 97.4 µM in the assay with NCI-H226 lung; 79.9 µM in the assay on HS 578T breast; 48.9 µM with MALME-3M melanoma. Also, the TGI in the assay on RPMI-8226 leukemia is greater than 100 µM; in the assay with UACC-62 melanoma it was greater than 100 µM; with EKVX NSCLC, greater than 100 µM; in the assay on RXF 393 renal it was 68.9 µM.

Consider `OC(COc1ccc(Cl)cc1Cl)CN1CCCC1` (centres undefined), for which the TGI with CCRF-CEM leukemia, in the assay with OVCAR-4 ovarian, in the assay on TK-10 renal, in the assay with NCI-H226 lung, with HS 578T breast and in the assay with MALME-3M melanoma was greater than 100 µM in each case. Further, the TGI with RPMI-8226 leukemia was greater than 100 µM; in the assay on UACC-62 melanoma, 50.1 µM; in the assay on EKVX NSCLC, greater than 100 µM; in the assay with RXF 393 renal, greater than 100 µM.

With `NC1=CC(=O)C(=O)c2cccnc21`, the GI50 with CCRF-CEM leukemia was 3.16 µM; with OVCAR-4 ovarian, 2.59 µM; with TK-10 renal, 29.3 µM; with NCI-H226 lung, 14.7 µM; in the assay on HS 578T breast, 5.16 µM; in the assay on MALME-3M melanoma, 2.22 µM. For the same compound, the GI50 is 2.65 µM in the assay with RPMI-8226 leukemia, 1.83 µM in the assay on UACC-62 melanoma, 12.5 µM in the assay on EKVX NSCLC and 14.2 µM in the assay with RXF 393 renal. The TGI in the assay with CCRF-CEM leukemia was determined as 10.5 µM; in the assay on OVCAR-4 ovarian, 8.15 µM; in the assay with TK-10 renal, 68.2 µM; in the assay on NCI-H226 lung, 42.5 µM; in the assay with HS 578T breast, 55.1 µM; in the assay on MALME-3M melanoma, 4.63 µM. Besides, the TGI is 9.91 µM in the assay with RPMI-8226 leukemia, 3.79 µM with UACC-62 melanoma, 26.1 µM with EKVX NSCLC and 27.2 µM in the assay on RXF 393 renal.

`Clc1ccccc1-c1nc2ccccc2[nH]1`: the GI50 with CCRF-CEM leukemia, in the assay with OVCAR-4 ovarian, in the assay on TK-10 renal, in the assay with NCI-H226 lung, with HS 578T breast and with MALME-3M melanoma was greater than 100 µM throughout. Further, the GI50 in the assay with RPMI-8226 leukemia was 94 µM; in the assay on UACC-62 melanoma, greater than 100 µM; in the assay on EKVX NSCLC, greater than 100 µM; in the assay with RXF 393 renal, greater than 100 µM. Further, the TGI in the assay on CCRF-CEM leukemia, in the assay with OVCAR-4 ovarian, in the assay with TK-10 renal, in the assay with NCI-H226 lung, in the assay with HS 578T breast and in the assay on MALME-3M melanoma was greater than 100 µM each time. Moreover, the TGI with RPMI-8226 leukemia, in the assay on UACC-62 melanoma, in the assay with EKVX NSCLC and with RXF 393 renal was greater than 100 µM in each case.

In the case of `CC(C)(C)c1ccc(C(=O)N/N=C/c2ccc(O)cc2O)cc1`, the GI50 in the assay on CCRF-CEM leukemia was 0.26 µM; with OVCAR-4 ovarian, 0.238 µM; in the assay on TK-10 renal it was 0.73 µM; with NCI-H226 lung, 0.412 µM; in the assay with HS 578T breast, 2.42 µM; with MALME-3M melanoma it was 0.478 µM. The GI50 was 0.784 µM in the assay with RPMI-8226 leukemia, 0.363 µM in the assay with UACC-62 melanoma, 0.356 µM in the assay with EKVX NSCLC and 1.61 µM in the assay on RXF 393 renal. The TGI was greater than 36.9 µM in the assay with CCRF-CEM leukemia; 14.9 µM in the assay on OVCAR-4 ovarian; greater than 53.5 µM in the assay with TK-10 renal; 5.75 µM in the assay with NCI-H226 lung; 27.3 µM in the assay with HS 578T breast; 5.19 µM with MALME-3M melanoma. The TGI in the assay on RPMI-8226 leukemia amounted to 20.9 µM; in the assay on UACC-62 melanoma it was 3.2 µM; with EKVX NSCLC, 11.8 µM; with RXF 393 renal, 12.2 µM.

For the compound `COC(=O)[C@]12CC[C@@H](C)[C@H](C)[C@@H]1C1=CC[C@@H]3[C@@]4(C)C(c5ncon5)=C[C@@](C)(CO)C4=CC[C@@]3(C)[C@]1(C)CC2`, the GI50 with CCRF-CEM leukemia is 1.89 µM; in the assay on OVCAR-4 ovarian, 3.1 µM; with TK-10 renal it was 2.17 µM; with NCI-H226 lung, 1.99 µM; in the assay with HS 578T breast, 2.52 µM; with MALME-3M melanoma, 1.67 µM. The GI50 in the assay with RPMI-8226 leukemia was 2.32 µM; in the assay with UACC-62 melanoma, 1.89 µM; in the assay on EKVX NSCLC it was 2.02 µM; in the assay on RXF 393 renal it was 1.75 µM. Also, the TGI in the assay with CCRF-CEM leukemia came out at 4.35 µM; in the assay with OVCAR-4 ovarian it was 11.8 µM; with TK-10 renal, 5.36 µM; in the assay on NCI-H226 lung, 4.4 µM; in the assay on HS 578T breast, 8.03 µM; with MALME-3M melanoma it was 3.55 µM. Besides, the TGI was 6.33 µM with RPMI-8226 leukemia, 4.02 µM in the assay with UACC-62 melanoma, 4.37 µM in the assay with EKVX NSCLC and 3.33 µM in the assay on RXF 393 renal.

With `O=C1OCC2=C1C(c1cccc(F)c1)c1cc3c(cc1N2CCO)OCCO3` (centres undefined), the GI50 in the assay on CCRF-CEM leukemia is 0.237 µM; in the assay with OVCAR-4 ovarian, 1.97 µM; in the assay with TK-10 renal it was 0.363 µM; with NCI-H226 lung, 3.18 µM; in the assay on HS 578T breast it was 0.179 µM; in the assay with MALME-3M melanoma it was 0.305 µM. For the same compound, the GI50 in the assay with RPMI-8226 leukemia was 0.207 µM; with UACC-62 melanoma, 0.112 µM; with EKVX NSCLC, 0.306 µM; in the assay with RXF 393 renal, 0.141 µM. Further, the TGI in the assay on CCRF-CEM leukemia was greater than 50 µM; with OVCAR-4 ovarian it was greater than 50 µM; in the assay on TK-10 renal, greater than 50 µM; in the assay with NCI-H226 lung, greater than 50 µM; with HS 578T breast it was 7.16 µM; in the assay on MALME-3M melanoma it was greater than 50 µM. Besides, the TGI in the assay on RPMI-8226 leukemia, with UACC-62 melanoma, in the assay on EKVX NSCLC and in the assay with RXF 393 renal was greater than 50 µM throughout.

Take `BrP(NC1CCCCCC1)(c1ccccc1)(c1ccccc1)c1ccccc1`: the TGI in the assay with CCRF-CEM leukemia was found to be 29 µM; in the assay with TK-10 renal it was 21.3 µM; in the assay on NCI-H226 lung it was 33 µM; with HS 578T breast it was 12.4 µM; with MALME-3M melanoma, 12.5 µM; in the assay with RPMI-8226 leukemia, 5.41 µM. For the same compound, the TGI was found to be 15.9 µM in the assay on UACC-62 melanoma, 35.4 µM in the assay on EKVX NSCLC and 5.57 µM in the assay on RXF 393 renal.
